Assay results taken from US20080261994A1, “CYCLOPROPANE COMPOUNDS AND PHARMACEUTICAL USE THEREOF” (Japan Tobacco Inc., priority 2003, published 2008).
Read-outs that look alike come from different tables or passages of the source.

Columns and labels:
Format in all cases: biochemical
aggrecanase-1 = molecular target: T1, aggrecanase-1 (Homo sapiens, UniProt O75173); assay: Aggrecanase-1 inhibitory action (Particle Assay, GAG release from aggrecan-containing polyacrylamide particles)
T1 sequence (O75173 213-837): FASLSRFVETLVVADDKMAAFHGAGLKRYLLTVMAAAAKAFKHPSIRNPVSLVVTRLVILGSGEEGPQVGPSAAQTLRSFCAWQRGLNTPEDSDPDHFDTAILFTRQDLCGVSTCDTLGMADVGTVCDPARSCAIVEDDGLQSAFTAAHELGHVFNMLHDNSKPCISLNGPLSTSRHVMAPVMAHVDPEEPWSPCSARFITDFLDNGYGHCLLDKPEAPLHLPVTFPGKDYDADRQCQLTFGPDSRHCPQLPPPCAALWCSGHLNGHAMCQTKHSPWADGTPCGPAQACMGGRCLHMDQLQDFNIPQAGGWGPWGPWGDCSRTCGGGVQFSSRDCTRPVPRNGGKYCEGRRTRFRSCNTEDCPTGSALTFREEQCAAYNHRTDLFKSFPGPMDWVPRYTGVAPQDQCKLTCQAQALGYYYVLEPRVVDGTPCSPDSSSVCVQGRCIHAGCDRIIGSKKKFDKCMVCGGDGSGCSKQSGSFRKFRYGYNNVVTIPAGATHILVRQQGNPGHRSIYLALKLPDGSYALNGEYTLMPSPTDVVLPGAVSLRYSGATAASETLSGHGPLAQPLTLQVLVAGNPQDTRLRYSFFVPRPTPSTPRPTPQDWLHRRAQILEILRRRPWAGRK
Summary of the method: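 Readout was dimethylmethylene blue absorbance (595 nm) of glycosaminoglycan liberated into supernatant, calibrated with whale chondroitin sulfate. Substrate was aggrecan in polyacrylamide particles, digested 15 h at 37° C in Tris-HCl; TC50 (μM) derived from inhibition relative to no-enzyme and no-inhibitor controls.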

MMP-1 = molecular target: T2, MMP-1 (Homo sapiens, UniProt P03956); assay: MMP-1 inhibitory action (Type I collagen Activity Measurement kit, FITC-labeled collagen type I)
T2 sequence (P03956 100-469): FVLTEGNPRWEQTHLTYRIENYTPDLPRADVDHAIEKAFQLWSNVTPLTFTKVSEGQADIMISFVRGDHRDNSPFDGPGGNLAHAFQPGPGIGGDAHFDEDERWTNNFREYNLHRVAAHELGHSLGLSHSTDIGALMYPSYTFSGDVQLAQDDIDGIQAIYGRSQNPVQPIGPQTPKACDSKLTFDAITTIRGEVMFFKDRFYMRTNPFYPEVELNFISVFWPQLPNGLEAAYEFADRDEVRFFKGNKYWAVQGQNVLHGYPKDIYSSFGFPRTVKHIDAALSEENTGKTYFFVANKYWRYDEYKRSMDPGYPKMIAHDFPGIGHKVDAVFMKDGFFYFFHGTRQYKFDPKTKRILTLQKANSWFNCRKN

Recombinant Human MMP-13 = molecular target: T3, Recombinant Human MMP-13 (Homo sapiens, UniProt P45452); assay: MMP-13 inhibitory activity (MMP-13 specific fluorescent substrate with quencher)
T3 construct: purchased R&D systems 511-MM
Summary of the method: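 IC50 (μM) derived from % inhibition, normalised to wells without enzyme and without inhibitor, fluorescence read at 325/405 nm. Enzyme and compound preceded addition of the quenched 7-MCA…DPA substrate; Tris-HCl buffer, 25 °C for 1 h, acetic-acid stop.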

[1] = aggrecanase-1 inhibitory action, read-out: IC50 AG1 (Experimental Example 1)
[2] = MMP-1 inhibitory action, FITC-labeled collagen type I, 37° C. for 3 hr, read-out: IC50 MMP1 (Experimental Example 2)
[3] = Recombinant Human MMP-13, fluorescent substrate, 25° C. for 1 h, read-out: IC50 MMP13 (Experimental Example 3)
[4] = Experimental Example 1, read-out: IC50 AG1
[5] = Experimental Example 2, read-out: IC50 MMP1
[6] = Experimental Example 3, read-out: IC50 MMP13

For `CC(C)(C)OC(=O)Nc1ccccc1C1CC1(NS(=O)(=O)c1ccc(-c2ccc(Cl)cc2)s1)C(=O)O` (stereo not drawn) [Example 2-217], the IC50 (aggrecanase-1; [1]) was less than 1 µM, the IC50 (MMP-1; [2]) was no less than 10 µM and the IC50 (Recombinant Human MMP-13; [3]) was less than 1 µM.
`CN(C)CCSCC1(c2ccccc2)CC1(NS(=O)(=O)c1ccc(-c2ccc(Cl)cc2)s1)C(=O)O` (stereo not drawn) [Example 2-337] showed an IC50 (aggrecanase-1; [4]) of less than 1 µM, an IC50 (MMP-1; [5]) of no less than 10 µM and an IC50 (Recombinant Human MMP-13; [6]) of less than 1 µM.
`O=C(O)C1(NS(=O)(=O)c2ccc(-c3ccc(Cl)cc3)s2)CC1(CCO)c1ccccc1` (stereo not drawn) [Example 2-263] showed an IC50 (aggrecanase-1; [1]) of less than 0.1 µM, an IC50 (MMP-1; [2]) of no less than 1 µM and an IC50 (Recombinant Human MMP-13; [3]) of less than 1 µM.
Compound `CC1[C@H](c2ccccc2)[C@]1(NS(=O)(=O)c1ccc(-n2cc(C(=O)O)cn2)s1)C(=O)O` (stereo partly drawn) [Example 2-522] has an IC50 (aggrecanase-1; [4]) of no less than 1 µM, an IC50 (MMP-1; [5]) of no less than 1 µM and an IC50 (Recombinant Human MMP-13; [6]) of less than 0.1 µM.
`O=C(NO)C1(NS(=O)(=O)c2ccc(-c3cc(C(F)(F)F)on3)s2)C2Cc3ccccc3C21` (stereo not drawn) [Example 2-495] was tested, and the IC50 (aggrecanase-1; [4]) was less than 0.1 µM, the IC50 (MMP-1; [5]) was less than 0.1 µM and the IC50 (Recombinant Human MMP-13; [6]) was less than 0.1 µM.
With `O=C(O)C1(NS(=O)(=O)c2ccc(-c3ccc(Cl)cc3)cc2)CC1c1cccc(OCCN2CCOCC2)c1` (stereo not drawn) [Example 1-74] the IC50 (aggrecanase-1; [1]) was less than 1 µM, the IC50 (MMP-1; [2]) was no less than 1 µM and the IC50 (Recombinant Human MMP-13; [3]) was less than 0.1 µM.
Compound `C[C@]1(c2ccccc2)C[C@@]1(NS(=O)(=O)c1ccc(-n2cc(S(C)(=O)=O)cn2)s1)C(=O)O` [Example 2-602] has an IC50 (aggrecanase-1; [4]) of less than 0.1 µM, an IC50 (MMP-1; [5]) of less than 1 µM and an IC50 (Recombinant Human MMP-13; [6]) of less than 1 µM.
In the case of `CC1[C@H](c2ccccc2)[C@]1(NS(=O)(=O)c1ccc(-c2cc(C(C)(F)F)on2)s1)C(=O)O` (stereo partly drawn) [Example 2-609], the IC50 (aggrecanase-1; [4]) is reported as less than 0.1 µM, the IC50 (MMP-1; [5]) is reported as less than 0.1 µM and the IC50 (Recombinant Human MMP-13; [6]) is reported as less than 0.1 µM.
In the case of `O=C(O)[C@]1(NS(=O)(=O)c2ccc3c(c2)CN(C2CCCCC2)C3)C[C@@H]1c1ccccc1` [Example 2-166], the IC50 (aggrecanase-1; [1]) is reported as no less than 10 µM, the IC50 (MMP-1; [2]) is reported as no less than 10 µM and the IC50 (Recombinant Human MMP-13; [3]) is reported as no less than 10 µM.
For `C[C@]1(c2ccc(F)cc2)C[C@@]1(NS(=O)(=O)c1ccc(-c2cc(C(F)(F)F)on2)s1)C(=O)O` [Example 2-621], the IC50 (aggrecanase-1; [4]) was less than 0.1 µM, the IC50 (MMP-1; [5]) was less than 1 µM and the IC50 (Recombinant Human MMP-13; [6]) was less than 0.1 µM.
`O=C1CCCN1c1ccc(S(=O)(=O)N[C@@]2(C(=O)O)C[C@@H]2c2ccccc2)s1` [Example 2-163] showed an IC50 (aggrecanase-1; [1]) of no less than 10 µM, an IC50 (MMP-1; [2]) of no less than 10 µM and an IC50 (Recombinant Human MMP-13; [3]) of no less than 10 µM.
`O=C(c1ccc(Cl)cc1)c1ccc(S(=O)(=O)N[C@@]2(C(=O)O)C[C@@H]2c2ccccc2)s1` [Example 2-307] was tested, and the IC50 (aggrecanase-1; [4]) was no less than 1 µM, the IC50 (MMP-1; [5]) was no less than 10 µM and the IC50 (Recombinant Human MMP-13; [6]) was no less than 1 µM.
`CC(C)(O)COc1cccc(C2CC2(NS(=O)(=O)c2ccc(-c3ccc(Cl)cc3)s2)C(=O)O)c1` (stereo not drawn) [Example 2-42] gave an IC50 (aggrecanase-1; [1]) of less than 0.1 µM, an IC50 (MMP-1; [2]) of no less than 10 µM and an IC50 (Recombinant Human MMP-13; [3]) of less than 0.1 µM.
Compound `O=C(O)C1(NS(=O)(=O)c2ccc(-c3cc(C(F)(F)F)on3)s2)CC1c1cccc(NS(=O)(=O)N2CCOCC2)c1` (stereo not drawn) [Example 2-267] has an IC50 (aggrecanase-1; [4]) of less than 0.1 µM, an IC50 (MMP-1; [5]) of no less than 1 µM and an IC50 (Recombinant Human MMP-13; [6]) of less than 0.1 µM.
With `COCC1(c2ccccc2)CC1(NS(=O)(=O)c1ccc(-c2ccc(Cl)cc2)s1)C(=O)O` (stereo not drawn) [Example 2-386] the IC50 (aggrecanase-1; [4]) was less than 1 µM, the IC50 (MMP-1; [5]) was no less than 1 µM and the IC50 (Recombinant Human MMP-13; [6]) was less than 1 µM.
`C[C@@H]1[C@H](c2ccccc2)[C@]1(NS(=O)(=O)c1ccc(-c2cc(C(C)(F)F)on2)s1)C(=O)O` [Example 2-9, (1S,2R,3R)-1-{5-[5-(1,1-difluoro-ethyl)-isoxazol-3-yl]-thiophene-2-sulfonylamino}-2-methyl-3-phenyl-cyclopropanecarboxylic acid] showed an IC50 (aggrecanase-1; [1]) of less than 0.1 µM, an IC50 (MMP-1; [2]) of less than 0.1 µM and an IC50 (Recombinant Human MMP-13; [3]) of less than 0.1 µM.
With `CC1[C@H](c2ccccc2)[C@]1(NS(=O)(=O)c1ccc(-c2ccc(Cl)c(N)c2)s1)C(=O)O` (stereo partly drawn) [Example 2-496] the IC50 (aggrecanase-1; [4]) was less than 0.1 µM, the IC50 (MMP-1; [5]) was less than 1 µM and the IC50 (Recombinant Human MMP-13; [6]) was less than 0.1 µM.
Compound `C[C@]1(c2ccccc2)C[C@@]1(NS(=O)(=O)c1ccc(-c2cccc(N)c2)s1)C(=O)O` [Example 2-452] has an IC50 (aggrecanase-1; [4]) of less than 1 µM, an IC50 (MMP-1; [5]) of less than 1 µM and an IC50 (Recombinant Human MMP-13; [6]) of less than 0.1 µM.
For `O=C(O)C1(NS(=O)(=O)c2cn3cc(-c4ccccc4)nc3s2)CC1c1ccccc1` (stereo not drawn) [Example 2-489], the IC50 (aggrecanase-1; [4]) was no less than 1 µM, the IC50 (MMP-1; [5]) was no less than 10 µM and the IC50 (Recombinant Human MMP-13; [6]) was less than 0.1 µM.
